Experimental data as given in US12522630B2, “MRNA cap analog and uses thereof” (HANMI FINE CHEMICAL CO., LTD., priority 2022, dated 2026).

Legend:
HEK293T cells = assay: Translation of capped luciferase mRNA in HEK293T cell; format: cell-based, Human; conditions: compared with mRNA capped with ^7mG(3′OMe)pppA(2′OMe)pG
Method: Translation activity of luciferase mRNAs respectively prepared by in vitro transcription of the compound of Example 8 or ^7mG(3′OMe)pppA(2′OMe)pG in Experimental Example 1 was evaluated in Human embryonic kidney 293T cell lines (HEK293T). HEK293T cells were incubated in DMEM supplemented with 10% FBS and 1% penicillin/streptomycin at 37° C. under an atmosphere of 5% CO2. HEK293T cells were plated in a 6-well plate at a density of 1×10^5 cells/well. […] The cells were harvested after 1, 4, 6, 12, 24, and 48 hours from the transfection and luciferase activity was measured by using a Dual-Glo® Luciferase Assay kit (Promega catalog #E2910) according to manufacturer's recommendations: after removing the medium of the transfected cells, 75 μl of phosphate-buffered saline (PBS) was added thereto. Subsequently, 75 μl of a Dual-Glo® reagent was further added thereto, followed by mixing and incubation for 10 minutes, and then firefly luciferase luminescence was measured by using a luminometer (Perkin Elmer). Then, 75 μl of a Dual-Glo® Stop&Glo® reagent was further added thereto, followed by incubation for 10 minutes, and then Renilla luciferase luminescence was measured. A ratio of firefly luciferase luminous value to a Renilla luciferase luminous value, a control was calculated, and then luciferase activity per hour relative […] (RLU) was normalized, which is shown in FIG. 2. […]

T7 RNA polymerase = target: T1, T7 RNA polymerase (Escherichia phage T7, UniProt P00573); assay: In vitro transcription of luciferase mRNA capped by co-transcriptional capping; format: biochemical; conditions: 4 mM cap analog, 37° C., 1 to 4 hours; compared with ^7mG(3′OMe)pppA(2′OMe)pG (set as 100%); FIG. 1
T1 construct: purchased New England Biolab #dy1670
T1 sequence (P00573 whole entry): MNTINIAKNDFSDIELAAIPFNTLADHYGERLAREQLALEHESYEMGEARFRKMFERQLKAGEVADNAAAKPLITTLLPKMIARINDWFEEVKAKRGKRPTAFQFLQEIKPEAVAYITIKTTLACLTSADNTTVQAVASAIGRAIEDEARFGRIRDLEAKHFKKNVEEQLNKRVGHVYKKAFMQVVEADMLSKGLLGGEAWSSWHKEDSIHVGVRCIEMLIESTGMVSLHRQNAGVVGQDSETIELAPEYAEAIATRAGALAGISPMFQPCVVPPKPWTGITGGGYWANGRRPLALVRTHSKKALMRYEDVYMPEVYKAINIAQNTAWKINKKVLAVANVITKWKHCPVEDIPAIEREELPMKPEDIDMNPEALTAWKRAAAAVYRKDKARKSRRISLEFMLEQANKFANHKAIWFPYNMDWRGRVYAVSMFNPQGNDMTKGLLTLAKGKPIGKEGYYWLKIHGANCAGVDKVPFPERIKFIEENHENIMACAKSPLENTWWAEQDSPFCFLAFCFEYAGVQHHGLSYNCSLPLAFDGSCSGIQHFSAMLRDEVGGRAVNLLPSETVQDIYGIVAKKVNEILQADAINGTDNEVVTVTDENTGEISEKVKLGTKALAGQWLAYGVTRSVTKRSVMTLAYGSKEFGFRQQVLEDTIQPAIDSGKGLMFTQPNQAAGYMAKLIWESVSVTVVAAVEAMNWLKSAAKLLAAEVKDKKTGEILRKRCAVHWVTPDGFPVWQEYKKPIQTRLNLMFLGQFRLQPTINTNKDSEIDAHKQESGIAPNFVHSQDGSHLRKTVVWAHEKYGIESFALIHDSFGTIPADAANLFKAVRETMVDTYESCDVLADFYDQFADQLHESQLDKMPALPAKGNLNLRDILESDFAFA
Method: For mRNA synthesis reaction using the compound of Example 8 as a cap analog, a transcription mixture including a 100 ng/ml firefly luciferase DNA transcription template (including poly A 101), 5 mM ATP, CTP, GTP, and 1-N-methyl-pseudouridine 5′-triphosphate (me^1øTP), 4 mM compound of Example 8, 10 U/ml T7 RNA polymerase (New England Biolab #dy1670), 1 U/ml RNase inhibiting protein, 0.01 U/ml inorganic pyrophosphatase, 40 mM Tris·HCl (pH 8.0), 20 mM magnesium acetate, 1 mM spermidine, and 10 mM DTT was prepared. As a comparative example, a transcription mixture was prepared by adding the TriLink's trinucleotide cap analog ^m7G(3′Ome)pppA(2′oMe)pG, instead of the compound of Example 8, under the same conditions. Each of the prepared transcription mixtures was reacted at 37° C. for 1 to 4 hours. […] Concentration of the purified mRNA was measured by using a Nanodrop spectrophotometer of Thermo Scientific, and a total amount of mRNA was calculated by multiplying the concentration and reaction volume. Then, in order to derive a mRNA in vitro transcription (IVT) yield, the total amount of mRNA synthesized using each different cap analog was divided by the input L-DNA content to quantify the IVT yield value according to the cap analog. […] This may be calculated by [Equation 1] below. […]

COC1[C@@H](OP(=O)(O)OC[C@H]2O[C@@H](n3cnc4c(=O)[nH]c(N)nc43)C(O)[C@H]2O)[C@@H](COP(=O)(O)OP(=O)(O)OP(=O)(O)OC[C@H]2O[C@@H](n3c[n+](C)c4c(=O)[nH]c(N)nc43)C(O)[C@H]2OS(C)(=O)=O)O[C@H]1n1cnc2c(N)ncnc21 (stereo partly drawn) [Example 8, ^7mG(3′OMs)pppA(2′OMe)pG]
total protein expression level (AUC of luciferase activity) of mRNA capped with the compound (HEK293T cells; 1 hour to 48 hours after transfection, FIG. 3): higher total protein expression level | luciferase activity of mRNA capped with the compound (HEK293T cells; from 6 hours to 12 hours after transfection, FIG. 2): far higher luciferase activity | IVT yield of luciferase mRNA with the compound as cap analog (T7 RNA polymerase): almost same
